Data published in patent US20220177453A1, “CRYSTALLIZATION OF SMAC MIMIC USED AS IAP INHIBITOR AND PREPARATION METHOD THEREOF” (CHIA TAI TIANQING PHARMACEUTICAL GROUP CO., LTD., priority 2019, published 2022).

Columns and labels:
[1] = Influencing factor (high temperature, high humidity) and irradiation stability tests; type: physicochemical
[2] = Hygroscopicity study (DVS); type: physicochemical
Procedure: Instrument model: SMS DVS Advantage
Test conditions: crystalline form A of the compound of formula (I) (10-15 mg) was placed in a DVS sample tray for testing.
The DVS parameters are as follows: • Temperature: 25° C. • Balancing: dm/dt=0.01%/min (shortest: 10 min, longest: 180 min) • Drying: drying at 0% RH for 120 min • RH (%) measurement gradient: 10% • RH (%) measurement gradient range: 0%-90%-0%

[3] = Long-term accelerated stability test; type: physicochemical
Procedure: Long-term accelerated test: 22 parts of crystalline form A of the compound of formula (I) each containing 1 50 g were prepared. The samples were separately put into a double-layer LDPE bag with each layer of LDPE bag sealed separately. The bag was then put into an aluminum foil bag for heat sealing. At inspection time points, the corresponding test samples were taken out, covered with bottle caps. 0-day samples were thawed to room temperature and directly analyzed. Approximately 10 mg of the test article was subjected to XRPD. The compounds were placed in the following conditions and samples were taken at different time points for determining their properties, XRPD pattern, content and related substances.

[4] = test system: MDA-MB-231 triple negative breast cancer CDX; test: In vivo efficacy study 2, MDA-MB-231 triple negative breast cancer CDX model; parameters: species or system BALB/c nude mice
Procedure: (§1) In vivo efficacy study was conducted on BALB/c nude mice by subcutaneously implanting human tumor cell line-derived xenograft (CDX) from MDA-MB-231 triple negative breast cancer patients
(§2) BALB/c nude mice, female, aged 6-8 weeks, about 18-22 g, were kept in a special pathogen-free environment and in separate ventilated cages (3 mice per cage). All cages, bedding and water were disinfected prior to use. All animals had free access to standard certified commercial laboratory diets. 48 mice were purchased from Shanghai BK Laboratory Animal Co., LTD. for the study. Each mouse was implanted subcutaneously in the right flank with tumor cells (10×10^6 in 0.2 mL of phosphate buffer) for tumor growth. The mice were administered when the mean tumor volume reached about 110 mm^3. The test compounds were administered orally at a daily dose of 30 mg/kg. Tumor volume was measured every 3 days with a two-dimensional caliper, and the volume was measured in mm^3 and calculated according to the following formula: V=0.5×a×b^2, where a and b are the long and short diameters, respectively, of the tumor. Anti-tumor efficacy was determined by dividing the mean tumor increase volume of compound-treated animals by the mean tumor increase volume of untreated animals

[5] = test system: MDA-MB-231 triple negative breast cancer CDX; test: In vivo efficacy study 1, MDA-MB-231 triple negative breast cancer CDX model; parameters: species or system BALB/c nude mice
Procedure: as §1
as §2, with “with cancer” for “with tumor”, “(10×10^6 cells” for “(10×10^6”, “phosphate buffered saline)” for “phosphate buffer)”, “about 147” for “about 110”

cIAP1 BIR3 = molecular target: T1, cIAP1 BIR3 (Homo sapiens, UniProt Q13490); test: cIAP1 BIR3 fluorescence polarization binding assay; settings: 5 nM probe, 20 nM cIAP1 BIR3
T1 construct: isolated BIR3 domain of human cIAP1 (amino acids 258-363); cIAP1; His; GST; purchased RBC APT-11-370; host or cells: E. coli
Source text: (§3) Buffer system (a buffer for cIAP1 BIR3 or XIAP BIR3): 0.1 mollL potassium phosphate, pH 7.5, 0.1% bovine serum albumin, 0.005% Triton X-100 and 1% dimethyl sulfoxide.
(§4) Probe: ARPFAQ-K(5-FAM)-NH2.
cIAP1-BIR3-his: RBC (Cat# APT-11-370), isolated BIR3 domain of human cIAP1 (amino acids 258-363; cIAP1
BIR3) expressed by E. coli as GST-fusion protein.
(§5) XIAP-BIR3-his: RBC (Cat# APT-11-374), isolated BIR3 domain of XIAP (amino acids 255-356; XIAP BIR3) expressed by E. coli as GST-fusion protein. Condition: 5 nM ARPFAQ-K(5-FAM)-NH2, 20 nM cIAP1 BIR3 and 30 nM XIAP BIR3.
(§6) Firstly, fresh buffer of cIAP1 BIR3 or XIAP BIR3 was prepared, and mixed with 2 folds of cIAP1 BIR3 or XIAP BIR3 solution. A solution of test compound completely dissolved in 100% DMSO via ultrasonication was added to the buffer containing cIAP1 BIR3 or XIAP BIR3. The mixture was added with 2 folds of probes, mixed and incubated for 60 min in the dark at room temperature. Fluorescence polarization was measured and mP value was calculated, finally giving an IC50 value.

XIAP BIR3 = molecular target: T2, XIAP BIR3 (Homo sapiens, UniProt P98170); test: XIAP BIR3 fluorescence polarization binding assay; settings: 5 nM probe, 30 nM XIAP BIR3
T2 construct: isolated BIR3 domain of XIAP (amino acids 255-356; XIAP BIR3); His; GST; purchased RBC APT-11-374; host or cells: E. coli
Procedure: as §3, §4, §5, §6

T2 sequence (P98170 255-356): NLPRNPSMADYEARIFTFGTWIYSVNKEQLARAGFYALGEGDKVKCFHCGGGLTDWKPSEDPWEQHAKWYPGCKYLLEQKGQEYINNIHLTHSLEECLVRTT
T1 sequence (Q13490 258-363): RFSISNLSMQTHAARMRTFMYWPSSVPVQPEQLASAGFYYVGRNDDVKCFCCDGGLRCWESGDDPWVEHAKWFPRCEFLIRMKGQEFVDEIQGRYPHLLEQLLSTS

## CN[C@@H](C)C(=O)N[C@H](C(=O)N1CCC[C@H]1Cn1cc(C(C)=O)c2cc(Cl)ccc21)C1CCCCC1
[1]; 25° C.-92.5% RH-5 days
  Content of crystalline form A (%): 99.1%
  Impurity content (%): 1.16%
[1]; 25° C.-92.5% RH-10 days
  Content of crystalline form A (%): 98.8%
  Impurity content (%): 1.13%
[1]; 25° C.-92.5% RH-30 days
  Content of crystalline form A (%): 99.2%
  Impurity content (%): 1.19%
[1]; 60° C.-5 days
  Content of crystalline form A (%): 99%
  Impurity content (%): 1.16%
[1]; 60° C.-10 days
  Content of crystalline form A (%): 98.2%
  Impurity content (%): 1.14%
[1]; 60° C.-30 days
  Content of crystalline form A (%): 99.1%
  Impurity content (%): 1.19%
[1]; Day 0
  Content of crystalline form A (%): 98.2%
  Impurity content (%): 1.19%
[1]; Irradiation-5 days
  Content of crystalline form A (%): 97.8%
  Impurity content (%): 1.12%
[1]; Irradiation-10 days
  Content of crystalline form A (%): 99.3%
  Impurity content (%): 1.13%
[1]; the various test conditions of Tables 4 and 5
  Crystalline form stability by XRPD versus day 0: stable
[2]; 25° C. and 80% RH
  hygroscopic weight gain: 0.72%
[2]; weight gain at 25° C./80% RH
  Classification of hygroscopicity: slightly hygroscopic
[3]; 25° C.-60% RH-3 months
  Content of crystalline form A (%): 98%
  Impurity content (%): 1.16%
[3]; 25° C.-60% RH-6 months
  Content of crystalline form A (%): 99.5%
  Impurity content (%): 1.12%
[3]; 25° C.-60% RH-9 months
  Content of crystalline form A (%): 98.2%
  Impurity content (%): 1.22%
[3]; 25° C.-60% RH-12 months
  Content of crystalline form A (%): 100.2%
  Impurity content (%): 1.09%
[3]; 40° C.-75% RH-1 month
  Content of crystalline form A (%): 99.3%
  Impurity content (%): 1.2%
[3]; 40° C.-75% RH-2 months
  Content of crystalline form A (%): 98.1%
  Impurity content (%): 1.19%
[3]; 40° C.-75% RH-3 months
  Content of crystalline form A (%): 97.8%
  Impurity content (%): 1.13%
[3]; 40° C.-75% RH-6 months
  Content of crystalline form A (%): 98.5%
  Impurity content (%): 1.12%
[3]; Day 0
  Content of crystalline form A (%): 98.2%
  Impurity content (%): 1.19%

## CN[C@@H](C)C(=O)N[C@H](C(=O)N1CCC[C@H]1Cn1cc(C(C)=O)c2cc(Cl)ccc21)C1CCCCC1 [Compound of formula (I)]
[4]; 5 days, 30 mg/kg oral daily
  Tumor volume (mm^3): 111 mm^3
[4]; 12 days, 30 mg/kg oral daily
  Tumor volume (mm^3): 86 mm^3
[4]; 20 days, 30 mg/kg oral daily
  Tumor volume (mm^3): 177 mm^3
[4]; Day 0, 30 mg/kg oral daily
  Tumor volume (mm^3): 110 mm^3
[5]; 6 days, 30 mg/kg oral daily
  Tumor volume (mm^3): 214 mm^3
[5]; 13 days, 30 mg/kg oral daily
  Tumor volume (mm^3): 282 mm^3
[5]; 20 days, 30 mg/kg oral daily
  Tumor volume (mm^3): 810 mm^3
[5]; Day 0, 30 mg/kg oral daily
  Tumor volume (mm^3): 147 mm^3
cIAP1 BIR3
  IC50: 5 nM
XIAP BIR3
  IC50: 29.9 nM
